Measurements published in patent US8414885B2, “Methods and compositions for treating cancer” (priority 2009, dated 2013).
Peptide text beside a SMILES is read from it. * marks the point of attachment. Cbz = O=C(OCc1ccccc1)*; CH2F = FC*

Tested on: melanoma cultures (A2058, MeWo, SM, A375)
Test: Virus growth by plaque assay (burst size) in melanoma cultures
Assay type: cell-based, human
Conditions: delta-PK infected melanoma cultures
Method: FIG. 3. Delta-PK is a growth-restricted replication competent oncolytic virus. A. Vero cells were infected with HSV-2, delta-PK, or HSV-2(R) (moi=0.5) in serum-free medium and virus titers were determined by plaque assay. Results are expressed as mean pfu/cell (burst size). B. A2058, MeWo, SM, A375 and Wi-38 cells were infected with delta PK and examined for virus growth. […] C. Delta-PK infected A2058 and WI-38, cells were stained with Alexafluor-488 labeled ICP10 and Alexafluor-594 labeled VP5 antibodies in double immunofluorescence. Cells were counted in 3 randomly selected fields (≧250 cells) and the % staining cells calculated relative to total cells identified by DAPI staining. Quantitative results are shown for A2058 cell at 4-72 hrs p.i., and for WI-38 cells at 48 hrs p.i. Similar results were obtained for the partially purified virus.
To measure virus replication in culture, cells were infected at a multiplicity of infection (moi) of 0.5 pfu/cell. Adsorption was for 1 hr at 4 degrees C. (synchronized infection). […] Virus titers were determined by plaque assay on Vero cells and the results are expressed as mean pfu/cell (burst size), as described (Li B, Smith C C, Laing J M, Gober M D, Liu L, Aurelian L. Overload of the heat-shock protein H11/HspB8 triggers melanoma cell apoptosis through activation of transforming growth factor-beta-activated kinase 1. Oncogene 2007; 26: 3521-3531). […]

| SMILES | effect of inhibitor on virus growth |
| --- | --- |
| O=C(O)/C(S)=C/c1ccc(I)cc1 [PD150606] | neither PD150606, nor z-VAD-fmk had any effect |
| COC(=O)C[C@H](NC(=O)[C@H](C)NC(=O)[C@@H](NC(=O)OCc1ccccc1)C(C)C)C(=O)CF [z-VAD-fmk, benzyloxcarbonyl-Val-Ala-Asp-fluormethyl ketone] (Cbz-Val-Ala-Asp(OMe)-CH2F) | neither PD150606, nor z-VAD-fmk had any effect |
